In ChEMBL document CHEMBL3217460, “Interactions of polysulfanes with components of red blood cells” (Medchemcomm, 2011):
Active and inactive are the calls of the source. The calls are words filed in the database; no cut-off is given here.

Columns and labels:
[1] = target: T1, Hemoglobin HbA (Homo sapiens) (UniProt P69905+P68871); test: Binding affinity to human hemoglobin at 100 to 300 uM by UV-Vis spectrophotometric analysis
Erythrocyte [2] = test: Hemolytic activity in human RBC assessed as phosphatidylserine exposure on outer leaflet of cell membrane at 50 uM after 20 mins by annexin V-FITC staining-based FACS analysis; format: functional
Erythrocyte [3] = test: Hemolytic activity in human RBC assessed as oxidation of hemoglobin to methemoglobin after 30 mins by UV-Vis spectrophotometric analysis; format: functional, cell-based
[4] = target: T1, Hemoglobin HbA (Homo sapiens); test: Binding affinity to human hemoglobin by CD spectroscopic analysis

T1 sequence (P68871 2-147 partner limits assumed): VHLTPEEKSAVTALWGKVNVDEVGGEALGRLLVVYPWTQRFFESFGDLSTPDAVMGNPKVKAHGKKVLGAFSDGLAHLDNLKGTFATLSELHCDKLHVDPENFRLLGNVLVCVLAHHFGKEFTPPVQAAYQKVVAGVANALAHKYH
T1 sequence (P69905 2-142 limits assumed): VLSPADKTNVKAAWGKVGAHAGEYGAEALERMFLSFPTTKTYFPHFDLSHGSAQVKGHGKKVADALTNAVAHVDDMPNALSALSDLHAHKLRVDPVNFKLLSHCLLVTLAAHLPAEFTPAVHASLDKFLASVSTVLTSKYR

SMILES	Activity [1]	Activity [4]	Activity (Erythrocyte [2])	Activity (Erythrocyte [3])	logP at 1000 µM (physchem)
C=CCSSSSCC=C	Active	Active	Active	Dose-dependent effect	–
C=CCSSCC=C	Active	Active	Active	–	2.72
C=CCCCCCCC=C	–	–	–	–	4.71
C=CCS	–	–	Active	–	–

Continued, in another order:

Activity [1]	Activity [4]	SMILES	Activity (Erythrocyte [2])	Activity (Erythrocyte [3])	logP at 1000 µM (physchem)
Active	Active	C=CCSSSCC=C	Active	Dose-dependent effect	–
Active	Active	C=CCSCC=C	Active	–	–
